Measurements: PubChem BioAssay AID2060486 (Molecular Pharmacology Branch, DTP, NCI, 2025)

System: IGROV1 complex spheroids (HUVEC, MSC), viability % test/control
Experiment: Anticancer human tumor IGROV1 cell line growth inhibition [GQUAD];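 note: spheroids exposed to compounds for 7 days before readout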
Conditions: for IC50: curve of first compound; for viability, T/C: stronger effect = lower value
Excerpt: DNA G-quadruplex Stabilizer Agents in Combinations in Complex Spheroids
A high-throughput screen of multi-cell type tumor spheroids was designed to identify active combinations of DNA G-quadruplex stabilizer agents and targeted small molecules. Complex spheroids include a stromal component modeled by human endothelial cells (HUVEC) and fibroblasts modeled by human mesenchymal stem cells (MSCs). The concentration ranges selected for each drug and investigational agent were based upon clinically achievable concentrations if the clinical Cmax of the agent was known.
Compounds. The drugs and investigational agents: pidnarulex (CX-5461; NSC782164), APTO-253 (NSC789042), BRACO-19 (NSC847499), peposertib (NSC802822), ceralasertib (NSC780249), elimusertib (NSC800525), camonsertib (NSC841442), AZD-1390 (NSC803789), olaparib (NSC753686), talazoparib (NSC767125), ART-558 (NSC835418), sotorasib (NSC818433), MRTX-1133 (NSC836407), SN-38 (NSC673596), topotecan (NSC609699), etoposide (NSC141540), doxorubicin (NSC123127), gemcitabine (NSC613327), 5-fluorouracil (NSC19893), paclitaxel (NSC125973), vemurafenib (NSC761431), panobinostat (NSC761190), R-306465 (JNJ-16241199; NSC773264), adavosertib (NSC754352), TP-3654 (NSC805149), carboplatin (NSC241240), KSQ-4279 (NSC840948), and staurosporine (NSC755774) were obtained from the National Cancer Institute (NCI) Developmental Therapeutics Program Chemical Repository (34). The FDA-approved anticancer drug set is available from the NCI Developmental Therapeutics Program. […] The stock solutions were prepared in dimethyl sulfoxide (DMSO, Sigma-Aldrich, St. Louis, MO, cat. D2650) at 800-fold the tested concentration and stored at -70 degrees C prior to their use. All drugs and investigational agents were tested over a range starting from a high concentration at or near the clinical Cmax and decreasing in half-log increments. If the clinical Cmax for an agent had not been determined, the highest concentration tested was 10 microM.
2.3 Cell Culture. All cells were maintained in an incubator at 37 degrees C and 5% CO2 with 95% humidity. The PDC lines were cultured according to standard operating procedures established by the NCI PDMR. All PDCs were thawed and cultured in Matrigel-coated flasks prepared with a working solution of 1X Ham's F-12 nutrient mix, without supplementation (Invitrogen, cat. 11765054), 100 U/mL penicillin-streptomycin (Invitrogen, cat. 15140122), and 2.5% Matrigel (Corning Inc., cat. 354248) for the first three passages. The 857933-349-R-J2-PDC line was cultured in 6C/Colon 1B media, which includes advanced DMEM/F-12 (Thermo Fisher Scientific, cat. 12634028), 10 mM HEPES (Thermo Fisher Scientific, cat. 15630080), 1X GlutaMAX supplement (Thermo Fisher Scientific, cat. 35050061), 0.1 mg/mL primocin (InvivoGen, cat. ant-pm-2), 10% defined fetal bovine serum, heat inactivated (HyClone Laboratories Inc., cat. SH30070.03HI), 50% L-WRN conditioned media (ATCC, cat. CRL-3276), 1.25 mM N-Acetyl-L-cysteine (Sigma-Aldrich, cat. A9165), 10 mM nicotinamide (Sigma-Aldrich, cat. N0636), 1X B-27 supplement (Thermo Fisher Scientific, cat. 17504044), 1X N-2 supplement (Thermo Fisher Scientific, cat. 17502048), 10 microM Y-27632 dihydrochloride (Tocris Bioscience, cat. 1254), and 50 ng/mL human EGF recombinant protein (Thermo Fisher Scientific, cat. PHG0311). The 485176-168-R4-J1-PDC line was cultured in Panc media, which includes all 6C/Colon 1B media components plus 100 ng/mL human FGF-10 (Thermo Fisher Scientific, cat. 100-26), 500 nM SB-431542 (Selleckchem, cat. S1067), and gastrin (Tocris, cat. 3006).
[…]

[1] = second compound 0.0316 µM, first compound 0.0316 µM
[2] = second compound 0.0316 µM, first compound 0.1 µM
[3] = second compound 0.0316 µM, first compound 0.316 µM
[4] = second compound 0.0316 µM, first compound 1 µM
[5] = second compound 0.0316 µM, first compound 3.16 µM
[6] = second compound 0.0316 µM, first compound 10 µM
[7] = second compound 0.1 µM, first compound 0.0316 µM
[8] = second compound 0.1 µM, first compound 0.1 µM
[9] = second compound 0.1 µM, first compound 0.316 µM
[10] = second compound 0.1 µM, first compound 1 µM
[11] = second compound 0.1 µM, first compound 3.16 µM
[12] = second compound 0.1 µM, first compound 10 µM
[13] = second compound 0.316 µM, first compound 0.0316 µM
[14] = second compound 0.316 µM, first compound 0.1 µM
[15] = second compound 0.316 µM, first compound 0.316 µM
[16] = second compound 0.316 µM, first compound 1 µM
[17] = second compound 0.316 µM, first compound 3.16 µM
[18] = second compound 0.316 µM, first compound 10 µM
[19] = second compound 1 µM, first compound 0.0316 µM
[20] = second compound 1 µM, first compound 0.1 µM
[21] = second compound 1 µM, first compound 0.316 µM
[22] = second compound 1 µM, first compound 1 µM
[23] = second compound 1 µM, first compound 3.16 µM
[24] = second compound 1 µM, first compound 10 µM
[25] = second compound 3.16 µM, first compound 0.0316 µM
[26] = second compound 3.16 µM, first compound 0.1 µM
[27] = second compound 3.16 µM, first compound 0.316 µM
[28] = second compound 3.16 µM, first compound 1 µM
[29] = second compound 3.16 µM, first compound 3.16 µM
[30] = second compound 3.16 µM, first compound 10 µM
[31] = second compound 10 µM, first compound 0.0316 µM
[32] = second compound 10 µM, first compound 0.1 µM
[33] = second compound 10 µM, first compound 0.316 µM
[34] = second compound 10 µM, first compound 1 µM
[35] = second compound 10 µM, first compound 3.16 µM
[36] = second compound 10 µM, first compound 10 µM

## CC1COCCN1c1cc(-c2ccnn2C)c2ccnc(-c3ccn[nH]3)c2n1 (stereo unspecified) + Cc1cnc(CNC(=O)c2c(=O)c3ccc(N4CCCN(C)CC4)nc3n3c2sc2ccccc23)cn1
Second compound 0.0316 µM
  IC50: < 31.6 nM
Second compound 0.1 µM
  IC50: < 31.6 nM
Second compound 0.316 µM
  IC50: < 31.6 nM
Second compound 1 µM
  IC50: < 31.6 nM
Second compound 3.16 µM
  IC50: < 31.6 nM
Second compound 10 µM
  IC50: < 31.6 nM
[1]
  viability, T/C: 16.8%
[2]
  viability, T/C: 9.68%
[3]
  viability, T/C: 7.59%
[4]
  viability, T/C: 5.06%
[5]
  viability, T/C: 4.01%
[6]
  viability, T/C: 2.97%
[7]
  viability, T/C: 10.3%
[8]
  viability, T/C: 7.36%
[9]
  viability, T/C: 6.21%
[10]
  viability, T/C: 5.27%
[11]
  viability, T/C: 3.92%
[12]
  viability, T/C: 4.13%
[13]
  viability, T/C: 9%
[14]
  viability, T/C: 7.55%
[15]
  viability, T/C: 6.04%
[16]
  viability, T/C: 5.16%
[17]
  viability, T/C: 4.14%
[18]
  viability, T/C: 3.5%
[19]
  viability, T/C: 8.34%
[20]
  viability, T/C: 6.08%
[21]
  viability, T/C: 5.92%
[22]
  viability, T/C: 5.14%
[23]
  viability, T/C: 3.89%
[24]
  viability, T/C: 3%
[25]
  viability, T/C: 7.12%
[26]
  viability, T/C: 7.74%
[27]
  viability, T/C: 7.15%
[28]
  viability, T/C: 5.94%
[29]
  viability, T/C: 3.88%
[30]
  viability, T/C: 2.53%
[31]
  viability, T/C: 6.76%
[32]
  viability, T/C: 5.78%
[33]
  viability, T/C: 7.42%
[34]
  viability, T/C: 3.84%
[35]
  viability, T/C: 4.68%
[36]
  viability, T/C: 2.74%

## CC1COCCN1c1cc(C2(S(C)(=N)=O)CC2)nc(-c2ccnc3[nH]ccc23)n1 (stereo unspecified) + Cc1cnc(CNC(=O)c2c(=O)c3ccc(N4CCCN(C)CC4)nc3n3c2sc2ccccc23)cn1
Second compound 0.0316 µM
  IC50: 205 nM
Second compound 0.1 µM
  IC50: < 31.6 nM
Second compound 0.316 µM
  IC50: < 31.6 nM
Second compound 1 µM
  IC50: < 31.6 nM
Second compound 3.16 µM
  IC50: < 31.6 nM
Second compound 10 µM
  IC50: < 31.6 nM
[1]
  viability, T/C: 71.7%
[2]
  viability, T/C: 62.6%
[3]
  viability, T/C: 43.3%
[4]
  viability, T/C: 15.1%
[5]
  viability, T/C: 31.4%
[6]
  viability, T/C: 5.8%
[7]
  viability, T/C: 35.4%
[8]
  viability, T/C: 36%
[9]
  viability, T/C: 16.5%
[10]
  viability, T/C: 10.8%
[11]
  viability, T/C: 12.8%
[12]
  viability, T/C: 4.75%
[13]
  viability, T/C: 26.8%
[14]
  viability, T/C: 20.6%
[15]
  viability, T/C: 13.7%
[16]
  viability, T/C: 7.83%
[17]
  viability, T/C: 13.6%
[18]
  viability, T/C: 4.61%
[19]
  viability, T/C: 13.3%
[20]
  viability, T/C: 17.7%
[21]
  viability, T/C: 13.3%
[22]
  viability, T/C: 8.94%
[23]
  viability, T/C: 11.2%
[24]
  viability, T/C: 6.04%
[25]
  viability, T/C: 11.9%
[26]
  viability, T/C: 10.2%
[27]
  viability, T/C: 10.9%
[28]
  viability, T/C: 8.09%
[29]
  viability, T/C: 10.3%
[30]
  viability, T/C: 5.89%
[31]
  viability, T/C: 9.84%
[32]
  viability, T/C: 9.08%
[33]
  viability, T/C: 9.32%
[34]
  viability, T/C: 8.94%
[35]
  viability, T/C: 9.55%
[36]
  viability, T/C: 4.74%

## Nc1ccn(C2OC(CO)C(O)C2(F)F)c(=O)n1 (stereo unspecified) + Cc1cnc(CNC(=O)c2c(=O)c3ccc(N4CCCN(C)CC4)nc3n3c2sc2ccccc23)cn1
Second compound 0.0316 µM
  IC50: < 31.6 nM
Second compound 0.1 µM
  IC50: < 31.6 nM
Second compound 0.316 µM
  IC50: < 31.6 nM
Second compound 1 µM
  IC50: < 31.6 nM
Second compound 3.16 µM
  IC50: < 31.6 nM
Second compound 10 µM
  IC50: < 31.6 nM
[1]
  viability, T/C: 10.5%
[2]
  viability, T/C: 5.6%
[3]
  viability, T/C: 5.15%
[4]
  viability, T/C: 4.7%
[5]
  viability, T/C: 4.99%
[6]
  viability, T/C: 4.44%
[7]
  viability, T/C: 12.7%
[8]
  viability, T/C: 4.99%
[9]
  viability, T/C: 8.19%
[10]
  viability, T/C: 6.35%
[11]
  viability, T/C: 5.18%
[12]
  viability, T/C: 3.96%
[13]
  viability, T/C: 11.5%
[14]
  viability, T/C: 5.16%
[15]
  viability, T/C: 5.92%
[16]
  viability, T/C: 5.56%
[17]
  viability, T/C: 4.85%
[18]
  viability, T/C: 4.62%
[19]
  viability, T/C: 11.1%
[20]
  viability, T/C: 7%
[21]
  viability, T/C: 6.75%
[22]
  viability, T/C: 6.61%
[23]
  viability, T/C: 4.42%
[24]
  viability, T/C: 4.28%
[25]
  viability, T/C: 6.61%
[26]
  viability, T/C: 7.28%
[27]
  viability, T/C: 6.54%
[28]
  viability, T/C: 5.77%
[29]
  viability, T/C: 5.25%
[30]
  viability, T/C: 3.96%
[31]
  viability, T/C: 9.97%
[32]
  viability, T/C: 6.38%
[33]
  viability, T/C: 5.25%
[34]
  viability, T/C: 7.22%
[35]
  viability, T/C: 5.43%
[36]
  viability, T/C: 3.66%
